Results from patent US8772268B2, “Bisphosphonamidate prodrugs and uses thereof” (The Johns Hopkins University, priority 2010, dated 2014).
Several values for one entry are separate records, joined by “and”; a condition that tells them apart may be missing. Equal values may be shown once. Read-outs that look alike come from different tables or passages of the source. Each block holds one compound with its values, some of them ahead of it.

How the values were obtained:
A549 NSCLC cells [1] = test: MTS cell proliferation assay, A549; format: cell-based; conditions: for growth inhibitory effect against A549 cells: concentrations up to 1 mM; for EC50: Homo sapiens, A549 (NSCLC), MTS, table of Example 3; for IC50: A549, MTS, read-out: IC50 (decreased cell proliferation by 50% compared to control)
Experimental: Cell proliferation was determined using the CellTiter 96 Aqueous One Solution Cell Proliferation Assay MTS assay. A549 NSCLC cells were plated at 1.5×10^3 cells per well in flat bottom 96 well plates in 99 μL of media and allowed to adhere overnight. The drugs were serially diluted in 100% DMSO. For each drug treatment group, 1 μL of a 100× stock solution was added to each well for a final DMSO concentration of 1%. Cells were treated for 24, 48 or 72 hours. Cells were incubated with MTS dye (20 μL well^−1) for 40 min to 2 h. Absorbance at 490 nm was determined using a SpectraMax M2 (Molecular Devices) plate reader. The percent cell proliferation was calculated by converting the experimental absorbance to percentage of control, which was then plotted vs. drug concentration. The IC50 values were determined using a non-linear dose-response analysis in GraphPad Prism version 4.0. The IC50 is defined as the concentration of drug needed to cause a 50% decrease in proliferation compared to vehicle control. […]

P. falciparum (NF54) = test: Antimalarial [3H]-hypoxanthine incorporation assay; format: cell-based, Plasmodium falciparum
Experimental: Plasmodium falciparum culture. NF54 P. falciparum parasites were maintained in O+ positive erythrocytes (obtained weekly from a rotating pool of screened healthy donors) in complete medium containing RPMI (Sigma), 25 mM N-2-hydroxyethylpiperazine-N′-2-ethanesulfonic acid (HEPES; Sigma), 27 mM sodium bicarbonate (Sigma) and 10% heat-inactivated male O+ serum in non-vented flasks. Hematocrit was maintained at 2.4%. Flasks were gassed with a mixture of 3% oxygen, 4% carbon dioxide, 93% nitrogen. Parasitemia was maintained at 0.1-5% by changing medium and erythrocytes two to three times a week.
Antimalarial activity was measured using a [^3H]-hypoxanthine incorporation assay as described previously (Desjardins et al., Antimicrob. Agents Chemother., vol. 16, p. 710, 1979; Milhous et al., Antimicrob. Agents Chemother., vol. 27, np. 525, 1985). […] For surveys, each concentration was assayed in triplicate while in expansions, each concentration was assayed in quadruplicate. To each well, 0.64 μCi of [^3H]-hypoxanthine (10-30 Ci/mmol; Perkin Elmer) was added and the plate was incubated for an additional 20 to 24 h. Samples from each well were harvested on filter paper and tritium counts were measured on the Beckmann Coulter LS6500 scintillation counter. […] Values considered as outliers according to Chauvenet's criterion were discarded and dropped from analysis. One survey and at least one expansion was performed for each compound.

A549 NSCLC cells [2] = test: Activity of other esters against NSCLC (FIG. 13A-D); format: cell-based; conditions: Homo sapiens
Experimental: Cells were dosed as described above. […] The results shown in FIG. 13 are from a single experiment only.
Results are shown in FIG. 13 and in the table below

[3] = test system: MDA-MB-453 (breast) cancer cell line; test: MTS cell proliferation assay, MDA-MB-453; format: cell-based; conditions: Homo sapiens
Experimental: (§1) Cell proliferation was determined using the CellTiter 96 Aqueous One Solution Cell Proliferation Assay MTS assay. A549 NSCLC cells were plated at 1.5×10^3 cells per well in flat bottom 96 well plates in 99 μL of media and allowed to adhere overnight. The drugs were serially diluted in 100% DMSO. For each drug treatment group, 1 μL of a 100× stock solution was added to each well for a final DMSO concentration of 1%. Cells were treated for 24, 48 or 72 hours. Cells were incubated with MTS dye (20 μL well^−1) for 40 min to 2 h. Absorbance at 490 nm was determined using a SpectraMax M2 (Molecular Devices) plate reader. The percent cell proliferation was calculated by converting the experimental absorbance to percentage of control, which was then plotted vs. drug concentration. The IC50 values were determined using a non-linear dose-response analysis in GraphPad Prism version 4.0. The IC50 is defined as the concentration of drug needed to cause a 50% decrease in proliferation compared to vehicle control.
(§2) The activity of Clodronate prodrug (14) was tested against other cell lines, include prostate (PIP3) and breast (MDA-MB-453) cancer cells lines. Cell proliferation was determined using the CellTiter 96 Aqueous One Solution Cell Proliferation Assay MTS assay as discussed above. Results are shown in FIG. 22 and in the table below.

L1210 = test: Cytotoxicity, L1210; format: cell-based
lung cancer cell lines = conditions: cited from earlier work
[4] = test system: breast and ovarian cancers; conditions: cited from earlier work
[5] = test system: PIP3 (prostate) cancer cell line; test: MTS cell proliferation assay, PIP3; format: cell-based
Experimental: as §1, §2

A549 NSCLC cells [6] = test: Trypan blue cell count assay, A549; conditions: for EC50: read-out: EC50 (decreased cell number by 50% compared to control)
Experimental: A549 NSCLC cells were plated at 1.7×10^4 cells per well in flat bottom 12-well plates. Cells were dosed as described above. At 24, 48 or 72 hours following drug treatment, the media was collected, and the cells were washed with 200 μL PBS. Each well was trypsinized with 200 μL trypsin for 3-5 min. The trypsin reaction was quenched with an equal volume of media. All supernatants and washes were combined and spun at 1,500 rpm for 5 min. Supernatant was decanted, and the cells were resuspended in 200 μL media. The cells were diluted 1:1 in 0.04% trypan blue and counted using a cytometer. The absolute number of cells was determined at each drug concentration. The cell number for each concentration was converted to percent of control for each time point, and plotted using GraphPad Prism 4.0. The EC50 was calculated as the concentration of drug that caused a 50% decrease in number of cells compared to control.
The number of viable cells at each dose was determined at 0, 24, 48 and 72 hours following drug treatment and plotted as a percent of control (FIG. 6A).

A549 = test: Cyclized zoledronate intermediate vs zoledronic acid, normoxia/hypoxia, A549; format: cell-based; conditions: Homo sapiens
H358 = test: Cyclized zoledronate intermediate vs zoledronic acid, normoxia/hypoxia, H358; format: cell-based; conditions: Homo sapiens
[7] = test system: several cancer cell lines; conditions: cited from earlier work
[8] = Plasmodium falciparum, P. falciparum (NF54), read-out: IC50
[9] = A549, 24 h, single experiment, read-out: IC50 24 h
[10] = A549, 48 h, single experiment, read-out: IC50 48 h
[11] = A549, 72 h, single experiment, read-out: IC50 72 h

Structure (SMILES): O=P(O)(O)CP(=O)(O)O [Bisphosphonate, reference compound]
growth inhibitory effect against A549 cells (A549 NSCLC cells [1]): minimal activity

Structure (SMILES): CN(CCCCCl)P(=O)(OCc1ccccc1)C(Cl)(Cl)P(=O)(OCc1ccccc1)N(C)CCCCCl (stereo not drawn) [Chlorobenzyl analog]
IC50 (P. falciparum (NF54); Plasmodium falciparum, NF54): 5.9 µM
IC50 (A549 NSCLC cells [2]; A549, 24 h, read-out: IC50 24 h): 18.9 µM
IC50 (A549 NSCLC cells [2]; A549, 48 h, read-out: IC50 48 h): 11.9 µM
IC50 (A549 NSCLC cells [2]; A549, 72 h, read-out: IC50 72 h): 11.6 µM

IC50 (P. falciparum (NF54); [8]): 750 µM
EC50 [3]: > 1000 µM
EC50 (A549 NSCLC cells [1]): > 1000 µM
EC50 [5]: > 1000 µM
Structure (SMILES): O=P(O)(O)C(Cl)(Cl)P(=O)(O)O [Clodronate, clodronate, reference compound]
IC50 (L1210; Mus musculus): 830 µM
activity against lung cancer cell lines (lung cancer cell lines): minimal activity
growth inhibition [4]: high micromolar or low millimolar range
growth inhibitory effect against A549 cells (A549 NSCLC cells [1]): minimal activity
growth inhibitory effect against A549 cells (A549 NSCLC cells [1]; listed as clodronate): does not exhibit a detectable growth inhibitory effect

Structure (SMILES): CN(CCCCCl)P(=O)(CP(=O)(OCc1ccccc1)N(C)CCCCCl)OCc1ccccc1 (stereo not drawn) [Deschlorobenzyl Analog]
IC50 (A549 NSCLC cells [2]; [9]): 21.6 µM
IC50 (A549 NSCLC cells [2]; [10]): 12.8 µM
IC50 (A549 NSCLC cells [2]; [11]): 7.8 µM

Structure (SMILES): CCN(CC)P(=O)(OCc1ccc([N+](=O)[O-])cc1)C(Cl)(Cl)P(=O)(OCc1ccc([N+](=O)[O-])cc1)N(CC)CC (stereo not drawn) [Diethylamine Analog]
IC50 (P. falciparum (NF54); [8]): 3.3 µM

Structure (SMILES): COP(=O)(N(C)CCCCCl)C(Cl)(Cl)P(=O)(OC)N(C)CCCCCl (stereo not drawn) [Methoxy analog]
IC50 (P. falciparum (NF54); [8]): 22 µM
IC50 (A549 NSCLC cells [2]; [9]): 93.4 µM
IC50 (A549 NSCLC cells [2]; [10]): 100 µM
IC50 (A549 NSCLC cells [2]; [11]): 76.3 µM

Structure (SMILES): CN(CCCCCl)P(=O)(OCCc1ccc([N+](=O)[O-])cc1)C(Cl)(Cl)P(=O)(OCCc1ccc([N+](=O)[O-])cc1)N(C)CCCCCl (stereo not drawn) [Nitrophenethyl analog]
IC50 (P. falciparum (NF54); [8]): 0.97 ± 0.21 µM
EC50 (A549 NSCLC cells [6]; Homo sapiens, A549, 24 h): ~10 µM
EC50 (A549 NSCLC cells [6]; Homo sapiens, A549, 48 h): 3.5 µM
EC50 (A549 NSCLC cells [6]; Homo sapiens, A549, 72 h): 4.2 µM
IC50 (A549 NSCLC cells [2]; [9]): 4.8 µM
IC50 (A549 NSCLC cells [2]; [10]): 3.1 µM
IC50 (A549 NSCLC cells [2]; [11]): 2.1 µM

IC50 (A549; A549, 48 h, Hypoxia): 350 µM
IC50 (A549; A549, 48 h, Normoxia): 98 µM
IC50 (A549; A549, 72 h, Hypoxia): 205 µM
IC50 (A549; A549, 72 h, Normoxia): 45 µM
EC50 [3]: 191 µM
IC50 (H358; NCI-H358, 48 h, H358, 48 hrs, Hypoxia): 87 µM
IC50 (H358; NCI-H358, 48 h, H358, 48 hrs, Normoxia): 59 µM
IC50 (H358; NCI-H358, 72 h, H358, 72 hrs, Hypoxia): 135 µM
IC50 (H358; NCI-H358, 72 h, H358, 72 hrs, Normoxia): 15 µM
EC50 (A549 NSCLC cells [1]): 58 µM
EC50 [5]: 78 µM
Structure (SMILES): O=P(O)(O)C(O)(Cn1ccnc1)P(=O)(O)O [Zoledronate, zoledronate]
IC50 [7]: ≥ 3000 nM

Structure (SMILES): CN(CCCCCl)P(=O)(CP(=O)(OCc1ccc([N+](=O)[O-])cc1)N(C)CCCCCl)OCc1ccc([N+](=O)[O-])cc1 (stereo not drawn) [compound 13]
IC50 (P. falciparum (NF54); P. falciparum (NF54), read-out: IC50): 5.2 ± 0.21 µM
EC50 (trypan blue) fold higher than IC50 (MTS) (A549 NSCLC cells [6]; A549, 48 h): ~3.6 fold
EC50 (A549 NSCLC cells [6]; A549, trypan blue, 48 h): 24 ± 4 µM
EC50 (A549 NSCLC cells [6]; A549, trypan blue, 72 h): 25 ± 4 µM
EC50 (A549 NSCLC cells [6]; A549, trypan blue, 72 h, listed as Bisphosphonate Prodrug): 24 ± 4 µM
IC50 (L1210): 27 µM
IC50 (A549 NSCLC cells [1]; 24 h): 17 ± 4 µM
IC50 (A549 NSCLC cells [1]; 48 h): 15.2 µM and 15 µM
IC50 (A549 NSCLC cells [1]; 72 h): 13 ± 1 µM
decrease in IC50 of 13 compared to 14 (A549 NSCLC cells [1]; A549 cells): 3 fold
